Patent US20240124470A1, “FIVE-MEMBERED RING DERIVATIVE AND MEDICAL USE THEREOF” (SICHUAN HAISCO PHARMACEUTICAL CO., LTD., priority 2020, published 2024)

Target: T1, hERG potassium channel (Homo sapiens, UniProt Q12809)
T1 construct: expressed in transfected cells
Experiment: Effects on hERG potassium channels, manual whole cell patch-clamp in CHO cells
Format: cell-based
Settings: hERG potassium current, room temperature
Source text: 2. Effects of the Compounds on hERG Potassium Channels
Experimental platform: electrophysiological manual patch-clamp system
Cell line: Chinese hamster ovary (CHO) cells stably expressing hERG potassium ion channel
Experimental method: For CHO (Chinese Hamster Ovary) cells stably expressing hERG potassium channel, whole cell patch-clamp technique was used to recorded hERG potassium channel current at room temperature in this experiment. The glass microelectrode is made of a glass electrode blank (BF150-86-10, Sutter) by a puller. The tip resistance after filling the liquid in the electrode is about 2-5 MΩ. The glass microelectrode can be connected to the patch-clamp amplifier by inserting the glass microelectrode into an amplifier probe. The clamping voltage and data recording are controlled and recorded by the pClamp 10 software through a computer. The sampling frequency is 10 kHz, and the filtering frequency is 2 kHz. After the whole cell records were obtained, the cells were clamped at −80 mV, and the step voltage that induced the hERG potassium current (IhERG) was depolarized from −80 mV to +20 mV for 2 s, then repolarized to −50 mV, and returned to −80 mV after 1 s. This voltage stimulation was given every 10 s, and the administration process was started after the hERG potassium current was confirmed to be stable (at least 1 minute). The compound was administered for at least 1 minute at each test concentration, and at least 2 cells (n≥2) were tested at each concentration.
Data analysis processing was carried out by using pClamp 10, GraphPad Prism 5 and Excel software. The inhibition degree of hERG potassium current (peak value of hERG tail current induced at −50 mV) at different compound concentrations was calculated by the following formula: Inhibition %=[1−(I/Io)]×100%.
Among the formula, Inhibition % represents the percentage of inhibition of hERG potassium current by the compound, and I and Io represent the amplitude of hERG potassium current after and before dosing, respectively.
Compound IC50 was calculated using GraphPad Prism 5 software by fitting according to the following equation:
Y=Bottom+(Top−Bottom)/(1+10^((LogIC50−X)×HillSlope))
Among the equation, X represents the Log value of the tested concentration of the test sample, Y represents the inhibition percentage at the corresponding concentration, and Bottom and Top represent the minimum and maximum inhibition percentage, respectively.

T1 sequence (Q12809 whole entry): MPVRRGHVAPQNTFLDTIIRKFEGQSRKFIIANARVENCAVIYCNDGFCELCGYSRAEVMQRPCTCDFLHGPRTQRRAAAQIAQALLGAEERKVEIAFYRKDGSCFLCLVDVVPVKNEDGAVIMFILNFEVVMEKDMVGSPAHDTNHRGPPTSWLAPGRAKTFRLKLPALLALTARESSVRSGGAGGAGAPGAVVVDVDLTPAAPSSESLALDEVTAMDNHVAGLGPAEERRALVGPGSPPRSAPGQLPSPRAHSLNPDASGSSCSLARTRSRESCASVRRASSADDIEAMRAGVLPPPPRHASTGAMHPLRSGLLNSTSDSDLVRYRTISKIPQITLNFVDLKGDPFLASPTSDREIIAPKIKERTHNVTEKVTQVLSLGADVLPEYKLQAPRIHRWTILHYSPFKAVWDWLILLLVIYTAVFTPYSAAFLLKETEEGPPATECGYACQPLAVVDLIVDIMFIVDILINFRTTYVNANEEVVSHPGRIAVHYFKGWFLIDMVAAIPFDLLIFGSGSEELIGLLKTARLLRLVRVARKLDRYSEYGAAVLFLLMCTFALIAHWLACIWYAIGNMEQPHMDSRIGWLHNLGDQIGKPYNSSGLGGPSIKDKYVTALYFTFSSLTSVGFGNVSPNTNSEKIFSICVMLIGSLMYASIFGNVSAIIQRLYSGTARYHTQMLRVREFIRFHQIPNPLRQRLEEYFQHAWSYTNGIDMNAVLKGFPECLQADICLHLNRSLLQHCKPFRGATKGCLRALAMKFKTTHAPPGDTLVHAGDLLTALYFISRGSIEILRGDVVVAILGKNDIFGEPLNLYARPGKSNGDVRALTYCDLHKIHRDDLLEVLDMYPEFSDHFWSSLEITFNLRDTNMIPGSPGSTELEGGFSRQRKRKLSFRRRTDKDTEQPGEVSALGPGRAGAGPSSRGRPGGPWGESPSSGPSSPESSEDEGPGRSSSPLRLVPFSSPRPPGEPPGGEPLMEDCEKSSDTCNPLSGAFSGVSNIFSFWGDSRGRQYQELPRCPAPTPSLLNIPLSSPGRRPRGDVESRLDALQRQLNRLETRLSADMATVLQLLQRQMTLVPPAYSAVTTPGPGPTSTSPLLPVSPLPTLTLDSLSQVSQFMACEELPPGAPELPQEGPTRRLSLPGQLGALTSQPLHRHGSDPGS

`N#Cc1ccc(COc2cccc(-c3ccc(Cc4nc5sc(C(=O)O)cc5n4C[C@@H]4CCO4)c(F)c3)n2)c(F)c1` [Compound 6, (S)-2-(4-(6-((4-cyano-2-fluorobenzyl)oxy)pyridin-2-yl)-2-fluorobenzyl)-1-(oxetan-2-ylmethyl)-1H-thieno[2,3-d]imidazole-5-carboxylic acid] was tested, and the IC50 was > 40 µM.
